Laboratory results: patent US11000033B2, “Ketone or oxime compound, and herbicide” (NISSAN CHEMICAL CORPORATION, priority 2014, dated 2021)

Legend:
Format in all cases: in vivo
[1] = tested on: directly sowed rice plant; assay: Test Example 3: effect on crop by foliage application, Wagner pot (symbol b); conditions: application herbicide amount 320 g/ha
In short: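 Wagner pot (1/10000 are), alluvial soil, submerged 0.1–0.5 cm; sown E. crus-galli var. crus-galli, L. chinensis, C. difformis, rice; greenhouse 25–30 °C.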

[2] = tested on: Digitaria ciliaris; assay: Test Example 4: herbicidal effect by soil treatment (symbol F); conditions: 320 g/ha
In short: (§1)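 Seeds were sown in sterilized diluvial soil, covered with about 1.5 cm of soil, and the soil surface was sprayed with a water-diluted emulsion of the compound at a predetermined rate. Plants grew in a greenhouse at 25° C. to 30° C.; effects were scored visually 3 weeks after application.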

[3] = tested on: Echinochloa crus-galli var. crus-galli; assay: Test Example 4: herbicidal effect by soil treatment (symbol H); conditions: 320 g/ha
In short: as §1

[4] = tested on: Alopecurus myosuroides; assay: Test Example 4: herbicidal effect by soil treatment (symbol J); conditions: 320 g/ha
In short: as §1

[5] = tested on: Lolium multiflorum Lam.; assay: Test Example 4: herbicidal effect by soil treatment (symbol K); conditions: 320 g/ha
In short: as §1

[6] = tested on: Stellaria media; assay: Test Example 4: herbicidal effect by soil treatment (symbol P); conditions: 320 g/ha
In short: as §1

[7] = tested on: Galium spurium; assay: Test Example 4: herbicidal effect by soil treatment (symbol Q); conditions: 320 g/ha
In short: as §1

[8] = tested on: Veronica persica; assay: Test Example 4: herbicidal effect by soil treatment (symbol R); conditions: 320 g/ha
In short: as §1

[9] = tested on: corn; assay: Test Example 4: effect on crop by soil treatment (symbol c); conditions: 320 g/ha
In short: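 Greenhouse culture at 25° C. to 30° C. followed sowing of seed in spots on sterilized diluvial soil with a soil cover close to 1.5 cm thick.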

[10] = tested on: soybean; assay: Test Example 4: effect on crop by soil treatment (symbol d); conditions: 320 g/ha
In short: (§2)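 Grown at 25° C. to 30° C. in a greenhouse, the crops came from seed sown spot-wise in sterilized diluvial soil under roughly 1.5 cm of covering soil.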

[11] = tested on: rice; assay: Test Example 4: effect on crop by soil treatment (symbol b); conditions: 320 g/ha
In short: as §2

[12] = tested on: beet; assay: Test Example 4: effect on crop by soil treatment (symbol f); conditions: 320 g/ha
In short: as §2

[13] = tested on: rapeseed; assay: Test Example 4: effect on crop by soil treatment (symbol g); conditions: 320 g/ha
In short: as §2

[14] = tested on: Digitaria ciliaris; assay: Test Example 5: herbicidal effect by foliage application, plastic box (symbol F); conditions: 320 g/ha, 3 weeks after application
In short: (§3)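 Visual herbicidal score, taken three weeks post-application, of seedlings sprayed on the foliage with water-diluted emulsion at a predetermined amount; plants were 14 days old, greenhouse-raised at 25° C. to 30° C.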

[15] = tested on: Setaria viridis; assay: Test Example 5: herbicidal effect by foliage application, plastic box (symbol G); conditions: 320 g/ha, 3 weeks after application
In short: as §3

[16] = tested on: Avena fatua; assay: Test Example 5: herbicidal effect by foliage application, plastic box (symbol I); conditions: 320 g/ha, 3 weeks after application
In short: as §3

[17] = tested on: Apera spica-venti; assay: Test Example 5: herbicidal effect by foliage application, plastic box (symbol L); conditions: 320 g/ha, 3 weeks after application
In short: as §3

[18] = tested on: Abutilon theophrasti; assay: Test Example 5: herbicidal effect by foliage application, plastic box (symbol M); conditions: 320 g/ha, 3 weeks after application
In short: as §3

[19] = tested on: Chenopodium album; assay: Test Example 5: herbicidal effect by foliage application, plastic box (symbol O); conditions: 320 g/ha, 3 weeks after application
In short: as §3

[20] = tested on: Stellaria media; assay: Test Example 5: herbicidal effect by foliage application, plastic box (symbol P); conditions: 320 g/ha, 3 weeks after application
In short: as §3

[21] = tested on: Galium spurium; assay: Test Example 5: herbicidal effect by foliage application, plastic box (symbol Q); conditions: 320 g/ha, 3 weeks after application
In short: as §3

[22] = tested on: Veronica persica; assay: Test Example 5: herbicidal effect by foliage application, plastic box (symbol R); conditions: 320 g/ha, 3 weeks after application
In short: as §3

[23] = tested on: rice plant; assay: Test Example 5: effect on crop by foliage application, plastic box (symbol b); conditions: 320 g/ha, 3 weeks after application
In short: (§4)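 Soil: sterilized diluvial. Container: plastic box, 21 × 13 cm, 7 cm deep. Sowing: spot-like, ~1.5 cm cover. Growth: greenhouse, 25° C. to 30° C.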

[24] = tested on: wheat; assay: Test Example 5: effect on crop by foliage application, plastic box (symbol e); conditions: 320 g/ha, 3 weeks after application
In short: as §4

[25] = tested on: beet; assay: Test Example 5: effect on crop by foliage application, plastic box (symbol f); conditions: 320 g/ha, 3 weeks after application
In short: as §4

| Compound | effect on crop b (directly sowed rice plant), grade 0-5 [1] | F: Digitaria ciliaris, herbicidal effect grade [2] | H: Echinochloa crus-galli var. crus-galli, herbicidal effect grade [3] | J: Alopecurus myosuroides, herbicidal effect grade [4] | K: Lolium multiflorum Lam., herbicidal effect grade [5] | P: Stellaria media, herbicidal effect grade [6] | Q: Galium spurium, herbicidal effect grade [7] | R: Veronica persica, herbicidal effect grade [8] | c: corn, effect grade on crop [9] | d: soybean, effect grade on crop [10] | b: directly sowed rice plant, effect grade on crop [11] | f: beet, effect grade on crop [12] | g: rapeseed, effect grade on crop [13] | F: Digitaria ciliaris, herbicidal effect (criteria 0-5) [14] | G: Setaria viridis, herbicidal effect (criteria 0-5) [15] | I: Avena fatua, herbicidal effect (criteria 0-5) [16] | L: Apera spica-venti, herbicidal effect (criteria 0-5) [17] | M: Abutilon theophrasti, herbicidal effect (criteria 0-5) [18] | O: Chenopodium album, herbicidal effect (criteria 0-5) [19] | P: Stellaria media, herbicidal effect (criteria 0-5) [20] | other results |
| --- | --- | --- | --- | --- | --- | --- | --- | --- | --- | --- | --- | --- | --- | --- | --- | --- | --- | --- | --- | --- | --- |
| CON=C(C)CON=C(C)CC1CC(O)=C(c2c(C)cc(C)cc2C)C1=O (stereo not drawn) [1-105] | 5 (Herbicidal ratio of 90% or more (almost completely withered)) | 5 (Herbicidal ratio of 90% or more (almost completely withered)) | 5 (Herbicidal ratio of 90% or more (almost completely withered)) | 5 (Herbicidal ratio of 90% or more (almost completely withered)) | 5 (Herbicidal ratio of 90% or more (almost completely withered)) | 0 (Herbicidal ratio of 5% or lower (almost no effect)) | 0 (Herbicidal ratio of 5% or lower (almost no effect)) | 0 (Herbicidal ratio of 5% or lower (almost no effect)) | 1 (Herbicidal ratio of 5% or higher and lower than 20%) | 0 (Herbicidal ratio of 5% or lower (almost no effect)) | 5 (Herbicidal ratio of 90% or more (almost completely withered)) | 0 (Herbicidal ratio of 5% or lower (almost no effect)) | 3 (Herbicidal ratio of 40% or higher and lower than 70%) | 5 (Herbicidal ratio of 90% or more (almost completely withered)) | 5 (Herbicidal ratio of 90% or more (almost completely withered)) | 5 (Herbicidal ratio of 90% or more (almost completely withered)) | 5 (Herbicidal ratio of 90% or more (almost completely withered)) | 1 (Herbicidal ratio of 5% or higher and lower than 20%) | 2 (Herbicidal ratio of 20% or higher and lower than 40%) | 1 (Herbicidal ratio of 5% or higher and lower than 20%) | Q: Galium spurium, herbicidal effect (criteria 0-5) [21]: 2 (Herbicidal ratio of 20% or higher and lower than 40%); R: Veronica persica, herbicidal effect (criteria 0-5) [22]: 3 (Herbicidal ratio of 40% or higher and lower than 70%); b: directly sowed rice plant, effect on crop (criteria 0-5) [23]: 5 (Herbicidal ratio of 90% or more (almost completely withered)); e: wheat, effect on crop (criteria 0-5) [24]: 5 (Herbicidal ratio of 90% or more (almost completely withered)); f: beet, effect on crop (criteria 0-5) [25]: 0 (Herbicidal ratio of 5% or lower (almost no effect)) |
| CC(CC1CC(O)=C(c2c(C)cc(C)cc2C)C1=O)=NOC1CCCC1 (stereo not drawn) [1-106] | 5 (Herbicidal ratio of 90% or more (almost completely withered)) | 5 (Herbicidal ratio of 90% or more (almost completely withered)) | 5 (Herbicidal ratio of 90% or more (almost completely withered)) | 5 (Herbicidal ratio of 90% or more (almost completely withered)) | 5 (Herbicidal ratio of 90% or more (almost completely withered)) | 0 (Herbicidal ratio of 5% or lower (almost no effect)) | 0 (Herbicidal ratio of 5% or lower (almost no effect)) | 0 (Herbicidal ratio of 5% or lower (almost no effect)) | 1 (Herbicidal ratio of 5% or higher and lower than 20%) | 0 (Herbicidal ratio of 5% or lower (almost no effect)) | 5 (Herbicidal ratio of 90% or more (almost completely withered)) | 0 (Herbicidal ratio of 5% or lower (almost no effect)) | 3 (Herbicidal ratio of 40% or higher and lower than 70%) | 5 (Herbicidal ratio of 90% or more (almost completely withered)) | 5 (Herbicidal ratio of 90% or more (almost completely withered)) | 5 (Herbicidal ratio of 90% or more (almost completely withered)) | 5 (Herbicidal ratio of 90% or more (almost completely withered)) | 1 (Herbicidal ratio of 5% or higher and lower than 20%) | 2 (Herbicidal ratio of 20% or higher and lower than 40%) | 2 (Herbicidal ratio of 20% or higher and lower than 40%) | Q: Galium spurium, herbicidal effect (criteria 0-5) [21]: 0 (Herbicidal ratio of 5% or lower (almost no effect)); R: Veronica persica, herbicidal effect (criteria 0-5) [22]: 1 (Herbicidal ratio of 5% or higher and lower than 20%); b: directly sowed rice plant, effect on crop (criteria 0-5) [23]: 5 (Herbicidal ratio of 90% or more (almost completely withered)); e: wheat, effect on crop (criteria 0-5) [24]: 4 (Herbicidal ratio of 70% or higher and lower than 90%); f: beet, effect on crop (criteria 0-5) [25]: 0 (Herbicidal ratio of 5% or lower (almost no effect)) |
| CC(CC1CC(O)=C(c2c(C)cc(C)cc2C)C1=O)=NOCCS(C)(=O)=O (stereo not drawn) [1-110] | 5 (Herbicidal ratio of 90% or more (almost completely withered)) | 5 (Herbicidal ratio of 90% or more (almost completely withered)) | 5 (Herbicidal ratio of 90% or more (almost completely withered)) | 5 (Herbicidal ratio of 90% or more (almost completely withered)) | 5 (Herbicidal ratio of 90% or more (almost completely withered)) | 0 (Herbicidal ratio of 5% or lower (almost no effect)) | 0 (Herbicidal ratio of 5% or lower (almost no effect)) | 0 (Herbicidal ratio of 5% or lower (almost no effect)) | 4 (Herbicidal ratio of 70% or higher and lower than 90%) | 0 (Herbicidal ratio of 5% or lower (almost no effect)) | 5 (Herbicidal ratio of 90% or more (almost completely withered)) | 0 (Herbicidal ratio of 5% or lower (almost no effect)) | 1 (Herbicidal ratio of 5% or higher and lower than 20%) | 5 (Herbicidal ratio of 90% or more (almost completely withered)) | 5 (Herbicidal ratio of 90% or more (almost completely withered)) | 5 (Herbicidal ratio of 90% or more (almost completely withered)) | 5 (Herbicidal ratio of 90% or more (almost completely withered)) | 0 (Herbicidal ratio of 5% or lower (almost no effect)) | 2 (Herbicidal ratio of 20% or higher and lower than 40%) | 3 (Herbicidal ratio of 40% or higher and lower than 70%) | Q: Galium spurium, herbicidal effect (criteria 0-5) [21]: 3 (Herbicidal ratio of 40% or higher and lower than 70%); R: Veronica persica, herbicidal effect (criteria 0-5) [22]: 3 (Herbicidal ratio of 40% or higher and lower than 70%); b: directly sowed rice plant, effect on crop (criteria 0-5) [23]: 5 (Herbicidal ratio of 90% or more (almost completely withered)); e: wheat, effect on crop (criteria 0-5) [24]: 5 (Herbicidal ratio of 90% or more (almost completely withered)); f: beet, effect on crop (criteria 0-5) [25]: 0 (Herbicidal ratio of 5% or lower (almost no effect)) |
